Assay results as given in patent US4029731A, “Aminophenyltetralin compounds” (Pfizer Inc., priority 1976, dated 1977).
Structures can show the parent of a compound that is named as a salt.

Legend:
Assay type in all cases: in vivo
[1] = test system: motor activity in mice; avoidance behavior in rats; assay: Psychomotor stimulant activity (motor activity in mice; Sidman avoidance in rats); details: as the hydrochloride salt
Source text: On the other hand, the activity of the compounds of the present invention, as psychomotor stimulants, is based on a variety of tests, including (1) a study of their motor activity in mice and (2) a measurement of their ability to influence the loss of avoidance behavior in rats trained on a non-discriminated (Sidman) avoidance schedule.

[2] = test system: rats; assay: Antidepressant and psychomotor stimulant activity in rats, intraperitoneal; details: i.p., 3.2 mg./kg. to 32 mg./kg.
Source text: (§1) As previously indicated, the 1-amino-4-phenyltetralin compounds of this invention (in the form of their trans-isomers) are all readily adapted to therapeutic use as psychotropic agents, particularly in view of their potent antidepressant and psychomotor stimulant properties. […] The other compounds of this invention also cause similar results. Furthermore, all the herein described trans-isomers of this invention can be administered as psychotropic agents by either the oral or parenteral routes of administration, for the present purposes at hand, without causing any significant untoward pharmacological side effects to occur in the subject to whom they are so administered. In general, these psychotropic compounds are normally administered in dosages ranging from about 0.3 mg., to about 10 mg. per kg. of body weight per day, although variations will necessarily occur depending upon the weight and conditions of the subject being treated and the particular route of administration chosen.

[3] = test system: non-discriminated (Sidman) avoidance behavior rats; assay: Non-discriminated (Sidman) avoidance behavior in rats; details: 5 mg./kg. and 10 mg./kg. i.p.
Source text: Eight (8) mature male rats were trained in Lehigh Valley automatic multiple-operant conditioning chambers to avoid a 2.0 mA electric shock that would last for 0.75 second, or terminate sooner if the rat lever became activated during the shock. In these tests, lever presses postponed the onset of shock for an initial period of 30 seconds, while only 10 seconds elapsed between shocks if no intervening response was elicited. The rats were run for a 40-minute control period before receiving the drug and then for approximately 2.5 hours after each treatment.

[4] = test system: reserpine-induced hypothermia in the mouse; assay: Reversal of reserpine-induced hypothermia in the mouse; details: 32 mg./kg. i.p., 2 hours after dosing; reserpine 2 mg./kg. s.c. 18 hours before; saline control 25.1° ± 3.2° C.
Experimental: The 1-amino-4-phenyltetraline final products of Examples III-IX were tested for antidepressant activity by measuring their ability to reverse reserpine-induced hypothermia in the mouse according to the procedure described by B.M. Askew in Life Science, Vol. 2, p. 725 (1963). In this test, all the animals were individually housed in plastic chambers with a cardboard bottom. The mice were injected with reserpine subcutaneously at 2 mg./kg. and retained at an ambient temperature of 20° C. for a period of 18 hours. At this point, their rectal temperatures were initially ascertained and immediately thereafter they were divided into groups of 5-20 animals for testing purposes. Each group then received either saline as a control or the compound to be tested at a dose level of 32 mg./kg., administered intraperitoneally, and the resulting rectal temperatures were measured two hours later. In the table below, the entries are reported as mean rectal temperatures for each compound at the 2-hour mark, together with the number of animals tested in each particular group.

[5] = Toxic / untoward side effects on administration; details: rats, i.p., 3.2 mg./kg. to 32 mg./kg.
Source text: as §1

[6] = test system: spontaneous motor activity in mice; assay: Spontaneous motor activity in mice (actophotometer activity counts)
Experimental: A total of seven mice was employed at each dose level tested (viz., at 0.32, 1.0, 3.2, 10 and 32 mg./kg., i.p., respectively) and these mice were separated one to an activity cage. After an initial one-half hour exposure period (for acclimation purposes), each animal in the cage was treated with a sample of the drug intraperitoneally and immediately thereafter returned to said cage, with activity counts every one-half hour being recorded from that point on.

SMILES: CN[C@@H]1CC[C@@H](c2ccccc2)c2ccccc21 [Trans-d-isomer of Example III, trans-d-N-methyl-4-phenyl-1,2,3,4-tetrahydro-1-naphthylamine as the hydrochloride]
- duration of motor stimulant activity [1]: long duration of motor stimulant activity
- onset of action [1]: rapid onset of action
- potency as psychomotor stimulant compared with methylphenidate [1]: comparable in potency to methylphenidate
- antidepressant and psychomotor stimulant activity [2]: marked antidepressant and psychomotor stimulant activity
- duration of drug effect after administration [3]: approximately one and a half
- start of drug effect [3]: ≤ 20 min
- increase of response rates over normal pre-drug control levels ([3]; four out of eight rats): 2-6 times
- response rates ([3]; four out of eight rats): moderate to marked increase in response rates
- increase of response rates over pre-drug control levels ([3]; two other rats): about 1.5 times
- Mean Rectal Temperature, Temp. (° C.) ±S.D. [4]: 34.1 ± 0.7 °C
- signs of toxic side effects [5]: without showing any substantial signs of toxic side effects
- duration of effect compared with d-amphetamine sulfate ([6]; 10 mg./kg. i.p. vs d-amphetamine sulfate at 3.2 mg./kg.): even more prolonged in its effect than did that of d-amphetamine sulfate
- effect on activity counts compared with d-amphetamine sulfate ([6]; 10 mg/kg. i.p. vs d-amphetamine sulfate at 3.2 mg./kg.): more pronounced than that of d-amphetamine sulfate
- effect on activity counts compared with methylphenidate ([6]; 10 mg/kg. i.p. vs methylphenidate at 10 mg./kg.): surpassing even that of methylphenidate
- activity counts ([6]; 10 mg/kg.(i.p.), 30-60 minutes after treatment): markedly elevated the activity counts
